Test [1] concerns the target T1, Epidermal growth factor receptor (Homo sapiens, UniProt P00533). Type of test: cell-based.
Description: Inhibition of EGFR in human A431 cells assessed as reduction in EGF-stimulated EGFR autophosphorylation preincuabted for 90 mins followed by EGF-stimulation by sandwich-ELISA
A short description of test [2]: cells. It counts as functional, cell-based. The note with it: Homo sapiens, 72 h.
Description: Antiproliferative activity against human UCH14 cells measured after 72 hrs by alamar blue assay
Test [3] addresses T1, Epidermal growth factor receptor. As to the kind of experiment: Inhibition of EGFR in human UCH1 cells assessed as reduction in EGF-induced EGFR phosphorylation at Y1068 residue at 1 uM preincubated for 4 hrs followed by EGF--stimulation and measured after 15 mins by Western blot analysis relative to control. It counts as cell-based. For orientation: Immunoblotting shows a protein as a band on a membrane.

For test [4] the target is unchanged. Kind of test: Inhibition of EGFR in human UCH2 cells assessed as reduction in EGF-induced EGFR phosphorylation at Y1068 residue at 1 uM preincubated for 4 hrs followed by EGF--stimulation and measured after 15 mins by Western blot analysis relative to control. Type of test: cell-based.
Test [5] deals with T2, Cyclin-G-associated kinase (Homo sapiens) (UniProt O14976).
T2 sequence (whole entry): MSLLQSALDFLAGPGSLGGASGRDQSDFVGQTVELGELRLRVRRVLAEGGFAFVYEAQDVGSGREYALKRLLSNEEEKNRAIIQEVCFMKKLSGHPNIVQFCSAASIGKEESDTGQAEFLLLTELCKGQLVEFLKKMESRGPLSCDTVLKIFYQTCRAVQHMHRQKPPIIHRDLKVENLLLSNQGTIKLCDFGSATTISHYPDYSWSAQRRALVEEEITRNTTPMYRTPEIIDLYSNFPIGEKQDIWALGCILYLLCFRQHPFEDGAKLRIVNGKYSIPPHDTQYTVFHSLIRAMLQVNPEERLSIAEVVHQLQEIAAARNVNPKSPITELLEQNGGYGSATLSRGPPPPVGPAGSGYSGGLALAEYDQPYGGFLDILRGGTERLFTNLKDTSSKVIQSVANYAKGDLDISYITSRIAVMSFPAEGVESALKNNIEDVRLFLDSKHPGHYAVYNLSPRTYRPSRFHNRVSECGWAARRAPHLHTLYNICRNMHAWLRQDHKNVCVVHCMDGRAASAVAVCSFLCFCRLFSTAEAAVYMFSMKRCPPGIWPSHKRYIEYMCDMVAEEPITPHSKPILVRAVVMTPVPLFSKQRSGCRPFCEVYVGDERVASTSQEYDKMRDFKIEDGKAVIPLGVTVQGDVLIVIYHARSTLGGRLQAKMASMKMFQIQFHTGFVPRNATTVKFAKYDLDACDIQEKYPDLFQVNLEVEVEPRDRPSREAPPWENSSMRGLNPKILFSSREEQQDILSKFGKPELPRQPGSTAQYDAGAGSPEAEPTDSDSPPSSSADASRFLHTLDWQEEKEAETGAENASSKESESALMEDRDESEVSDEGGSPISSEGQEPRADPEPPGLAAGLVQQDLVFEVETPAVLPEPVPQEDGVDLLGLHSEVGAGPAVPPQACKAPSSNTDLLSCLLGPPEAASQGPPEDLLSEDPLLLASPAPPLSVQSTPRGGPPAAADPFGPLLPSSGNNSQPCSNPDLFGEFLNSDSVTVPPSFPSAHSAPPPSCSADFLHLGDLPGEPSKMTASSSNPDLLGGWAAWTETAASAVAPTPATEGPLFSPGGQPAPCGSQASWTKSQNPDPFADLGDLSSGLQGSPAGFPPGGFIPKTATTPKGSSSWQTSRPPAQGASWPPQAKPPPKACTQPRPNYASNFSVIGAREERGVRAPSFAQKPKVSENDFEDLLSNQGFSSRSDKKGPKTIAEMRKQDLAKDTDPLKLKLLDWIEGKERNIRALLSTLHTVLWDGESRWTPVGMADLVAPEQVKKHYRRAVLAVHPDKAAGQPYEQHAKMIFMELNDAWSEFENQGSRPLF
Kind of test: Binding affinity to GAK in human SUM159 cell lysates by multiplexed inhibitor bead profiling-based LC-MS/MS analysis. It counts as subcellular. As to conditions: Lysate.

For one compound, IC50, inhibition and Activity results are on record in ChEMBL document CHEMBL4393671, “Design of a Cyclin G Associated Kinase (GAK)/Epidermal Growth Factor Receptor (EGFR) Inhibitor Set to Interrogate the Relationship of EGFR and GAK in Chordoma” (J Med Chem, 2019).

Calls of active or inactive are those of the source. The rule behind the calls is not given here.

The term IC50 denotes the midpoint of a concentration-inhibition curve. High values mean weaker potency, low ones greater potency. As a reminder, the inhibition is the relative decrease from the control value, in per cent.

T1 sequence (P00533 whole entry): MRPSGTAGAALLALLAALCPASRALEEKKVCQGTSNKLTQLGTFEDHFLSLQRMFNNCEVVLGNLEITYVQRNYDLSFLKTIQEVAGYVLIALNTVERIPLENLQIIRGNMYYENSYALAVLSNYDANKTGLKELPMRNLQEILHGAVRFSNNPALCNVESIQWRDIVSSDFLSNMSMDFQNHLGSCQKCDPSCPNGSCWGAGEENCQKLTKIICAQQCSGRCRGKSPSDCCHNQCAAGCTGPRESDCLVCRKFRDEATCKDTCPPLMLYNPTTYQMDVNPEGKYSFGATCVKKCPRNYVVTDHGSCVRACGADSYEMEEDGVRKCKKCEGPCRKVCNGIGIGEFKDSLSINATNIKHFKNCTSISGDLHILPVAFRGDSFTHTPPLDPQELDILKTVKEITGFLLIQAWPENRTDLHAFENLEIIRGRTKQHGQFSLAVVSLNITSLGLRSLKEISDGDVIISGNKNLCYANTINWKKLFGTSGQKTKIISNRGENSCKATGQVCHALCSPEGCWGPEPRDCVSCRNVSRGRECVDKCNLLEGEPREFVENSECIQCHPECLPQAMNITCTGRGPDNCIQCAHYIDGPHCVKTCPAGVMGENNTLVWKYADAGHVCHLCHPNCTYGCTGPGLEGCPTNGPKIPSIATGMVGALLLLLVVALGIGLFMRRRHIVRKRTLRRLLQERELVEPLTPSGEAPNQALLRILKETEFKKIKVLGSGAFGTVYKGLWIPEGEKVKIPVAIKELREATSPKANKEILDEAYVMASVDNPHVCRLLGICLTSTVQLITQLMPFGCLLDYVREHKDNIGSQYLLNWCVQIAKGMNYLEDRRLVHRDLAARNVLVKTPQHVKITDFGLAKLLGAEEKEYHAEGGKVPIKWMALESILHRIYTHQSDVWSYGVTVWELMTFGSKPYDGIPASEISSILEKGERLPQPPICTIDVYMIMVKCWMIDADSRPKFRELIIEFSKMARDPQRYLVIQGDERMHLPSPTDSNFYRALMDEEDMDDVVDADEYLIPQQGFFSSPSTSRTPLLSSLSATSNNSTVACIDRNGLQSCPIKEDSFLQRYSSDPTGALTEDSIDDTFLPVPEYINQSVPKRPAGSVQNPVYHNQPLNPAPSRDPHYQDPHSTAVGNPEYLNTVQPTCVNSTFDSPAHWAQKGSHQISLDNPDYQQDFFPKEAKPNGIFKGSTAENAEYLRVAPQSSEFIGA

In the case of `C#Cc1cccc(Nc2ccnc3cc(OC)c(OC)cc23)c1`, the IC50 in test [1] turned out to be 42 nM; in test [2], 13 µM. In addition, the inhibition in test [3] and in test [4] was 0% each time. Moreover, in test [5], the outcome was Active.
